From PubChem BioAssay AID652019 (Molecular Libraries Program, Specialized Chemistry Center, …, 2013) come the findings set out here.

pIC50: −log10 of the molar value. Calls of active or inactive are those of the source.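 Rule for the calls: active = compound whose activity held up on retesting over a range of doses, giving a fitted IC50; inactive = the rest.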 Bounds are passed on as bounds.

This experiment has as its system E. coli EV36, T7 phage lysis inhibition, OD600. Put plainly: inhibition of T7 phage lysis, E. coli EV36, dose response, selectivity assay for bacterial capsule biogenesis inhibitor project, OD600, set 6 (AID 652019).

As for `Cc1nc2ccc(C(=O)Nc3ccncc3F)cc2s1`, the IC50 was > 50 µM (inactive). In the case of `Cc1nc2ccc(C(=O)Nc3ccncc3Br)cc2s1`, the IC50 was > 50 µM (inactive). Regarding `Nc1cnccc1NC(=O)c1ccc2ncsc2c1`, the IC50 was > 50 µM (inactive). As to `Cc1cnccc1NC(=O)c1ccc2nc(N)sc2c1`, the IC50 is > 50 µM (inactive).

Turning to `O=C(Nc1ccncc1F)c1ccc2nc(N3CCCC3)sc2c1`, the IC50 is > 50 µM (inactive). For the compound `CC(C)(C)OC(=O)Nc1nc2ccc(C(=O)Nc3ccncc3)cc2s1`, the IC50 is > 50 µM (inactive).

Take `Cc1cc(NC(=O)c2ccc3nc(N4CCCC4)sc3c2)ccn1`: the IC50 is > 50 µM (inactive). As for `CC(C)(C)OC(=O)Nc1nc2ccc(C(=O)Nc3ccnc(F)c3)cc2s1`, the pIC50 is 5.94.

`CC(C)(C)OC(=O)Nc1cnccc1NC(=O)c1ccc2ncsc2c1`: the IC50 is > 50 µM (inactive).

`COc1cc(NC(=O)c2ccc3nc(NC(=O)OC(C)(C)C)sc3c2)ccn1`: the IC50 was > 50 µM (inactive). As for `CC(C)(C)OC(=O)Nc1ccc(NC(=O)c2ccc3nc(N4CCCC4)sc3c2)cn1`, the IC50 is > 50 µM (inactive). Still for that read-out and setting: as for `O=C(Nc1ccnc(Cl)c1)c1ccc2nc(N3CCCC3)sc2c1`, the figure is > 50 µM (inactive); as for `Cc1nc2ccc(C(=O)Nc3ccncc3C)cc2s1`, > 50 µM (inactive). As to `O=C(Nc1ccncc1Br)c1ccc2ncsc2c1`, the IC50 is > 50 µM (inactive). Same read-out and setting: the same measure for `Nc1nc2ccc(C(=O)Nc3ccncc3F)cc2s1`: > 50 µM (inactive). Still for that read-out and setting: the same measure for `CC(C)(C)OC(=O)Nc1nc2ccc(C(=O)Nc3ccncc3Br)cc2s1`: > 50 µM (inactive). Turning to `Cc1nc2ccc(C(=O)Nc3ccnc(F)c3)cc2s1`, the IC50 was > 50 µM (inactive).

For `Cc1cnccc1NC(=O)c1ccc2ncsc2c1`, the pIC50 was 5.45. `Cc1nc2ccc(C(=O)Nc3cnccc3NC(=O)OC(C)(C)C)cc2s1`: the IC50 was > 50 µM (inactive). Take `O=C(Nc1ccncc1F)c1ccc2ncsc2c1`: the pIC50 was 5.48.

As for `COc1cc(NC(=O)c2ccc3nc(N4CCCC4)sc3c2)ccn1`, the IC50 was > 50 µM (inactive). Take `CC(C)(C)OC(=O)Nc1nc2ccc(C(=O)Nc3ccnc(Cl)c3)cc2s1`: the pIC50 was 6.31. `O=C(O)c1ccc2ncsc2c1`: the IC50 was > 50 µM (inactive). Take `COc1cc(NC(=O)c2ccc3nc(C)sc3c2)ccn1`: the pIC50 was 5.40. Take `CC(C)(C)OC(=O)Nc1cnccc1NC(=O)c1ccc2nc(N)sc2c1`: the IC50 was > 50 µM (inactive).

Take `CC(C)(C)OC(=O)Nc1ccc(NC(=O)c2ccc3nc(NC(=O)OC(C)(C)C)sc3c2)cn1`: the IC50 is > 50 µM (inactive). Regarding `Cc1cnccc1NC(=O)c1ccc2nc(NC(=O)OC(C)(C)C)sc2c1`, the IC50 is > 50 µM (inactive).

Turning to `O=C(Nc1ccnc(Br)c1)c1ccc2nc(N3CCCC3)sc2c1`, the IC50 was > 50 µM (inactive). For the compound `CC(C)(C)OC(=O)Nc1nc2ccc(C(=O)Nc3ccnc(Br)c3)cc2s1`, the pIC50 was 5.44. Regarding `Cc1cc(NC(=O)c2ccc3nc(NC(=O)OC(C)(C)C)sc3c2)ccn1`, the pIC50 is 6.31. Turning to `O=C(Nc1ccncc1Br)c1ccc2nc(N3CCCC3)sc2c1`, the IC50 was > 50 µM (inactive).

In the case of `Nc1nc2ccc(C(=O)Nc3ccncc3)cc2s1`, the IC50 was > 50 µM (inactive).

On to `Nc1ccncc1`, for which the IC50 is > 50 µM (inactive). The same measure, in the same setting: the same measure for `Cc1cnccc1NC(=O)c1ccc2nc(N3CCCC3)sc2c1`: > 50 µM (inactive); for `O=C(Nc1ccncc1)c1ccc2nc(N3CCCC3)sc2c1`: > 50 µM (inactive). Consider `COc1cc(NC(=O)c2ccc3nc(N)sc3c2)ccn1`, for which the pIC50 was 6.03.

As for `Cc1nc2ccc(C(=O)Nc3ccncc3)cc2s1`, the pIC50 is 5.60.

One may read the IC50 as the point on the concentration scale where inhibition reaches its midpoint. A word on the pIC50: it is the negative decadic logarithm of the IC50, by convention in mol/L.
